“Also recorded” adds a separate entry of the source.
What was measured:
ARPE-19 cells = test: Oxidative stress induced apoptosis / cell death in ARPE-19 cells; assay type: cell-based, human; details: stressed ARPE-19 cells treated with 5 μm of 15-LOX-D1 inhibitor PD146176
Procedure: (§1) FIG. 5. (A) Effect of PD146176 on VLC-PUFA-inhibited apoptosis induced by OS in ARPE-19 cells. […] It is evident that 32:6 and 34:6 LCAF were able to induce a substantial amount (55 and 48% respectively) of neuroprotection compared to PD 146176 (22%) when the stressed cells were treated with 5 μm of 15-LOX-D1 inhibitor. It can be concluded that since PD146176 is the inhibitor of 15-lipooxygenase enzyme, it might be protecting the stressed RPE cells by accumulating neuroprotective agents inside the cells. (B) Comparison of cytoprotective capacities of NPD1, C32:6 and C34:6 VLC-PUFA on oxidative stress-induced apoptosis in 15-LOX-1 cells. Shown here is the comparison of neuroprotection in a 15-LOX-1-deficient cell line under oxidative stress with 32:6 and 34:6 VLC-PUFA along with NPD1. 32:6 and 34:6 LCAF were able to induce neuroprotection (45% and 40% respectively), as compared to oxidative stress (90%) under this condition. (C) Concentration dependent cytoprotection by C32:6 and C34:6 VLC-PUFA in oxidative-stress induced ARPE-19 cells. A concentration (50-500 nM) kinetic of cytoprotection induced by LCAF 32:6 and 34:6 in RPE cell culture under OS was shown here. […] We decided to use 250 nM concentrations of 32:6 and 34:6 LCAF in subsequent experiments. (D) Selected images of alive and dead cells from this study (control, OS, treatment with C32:6).
(§2) FIG. 5—(A) Effect of PD146176 on VLC-PUFA inhibited apoptosis induced by OS in ARPE-19 cells. […] It is evident that 32:6 and 34:6 LCAF were able to induce a substantial amount (55 and 48% respectively) of neuroprotection compared to PD 146176 (22%) when the stressed cells were treated with 5 μm of 15-LOX-D1 inhibitor. It can be concluded that since PD146176 is the inhibitor of 15-lipooxygenase enzyme, it might be protecting the stressed RPE cells by accumulating neuroprotective agents inside the cells. (B) Comparison of cytoprotective capacities of NPD1, C32:6 and C34:6 VLC-PUFA on oxidative stress-induced apoptosis in 15-LOX-1 cells. Shown here is the comparison of neuroprotection in a 15-LOX-1-deficient cell line under oxidative stress with 32:6 and 34:6 VLC-PUFA along with NPD1. 32:6 and 34:6 VLC-PUFA were able to induce neuroprotection (45% and 40% respectively), as compared to oxidative stress (90%) under this condition. (C) Concentration dependent cytoprotection by C32:6 and C34:6 VLC-PUFA in oxidative-stress induced ARPE-19 cells. A concentration (50-500 nM) kinetic of cytoprotection induced by VLC-PUFA 32:6 and 34:6 in RPE cell culture under OS was shown here. […] We decided to use 250 nM concentrations of 32:6 and 34:6 VLC-PUFA in subsequent experiments. (D) Selected images of alive and dead cells from this study (control, OS, treatment with C32:6).

[1] = test system: neuronal cells in primary cultures; test: NMDA-induced toxicity in neuronal cells in primary culture, MTT assay for cell viability; assay type: cell-based; details: MK-801 with ELV2; NMDA receptor blocker used as control
Source text: FIG. 11. […] In several neurological and neurodegenerative diseases, such as stroke, epilepsy, status epilepticus, traumatic head injury, etc., as well as ophthalmological diseases, such as glaucoma, an excessive presynaptic release of the excitatory neurotransmitter glutamate takes place. As a consequence, glutamate transporters that function to remove extracellular glutamate from astrocytes and neurons are overwhelmed and the NMDA-type glutamate receptor is over-activated. This receptor is a calcium channel that therefore leads to a flooding of calcium into the postsynaptic cell. The overall phenomena is refer to as excitotoxicity that in turn leads to neuronal damage and cell death. MK801 is a known blocker of this receptor used here as a control.
In several neurological and neurodegenerative diseases, such as stroke, epilepsy, status epilepticus, traumatic head injury, etc., as well as ophthalmological diseases, such as glaucoma, an excessive presynaptic release of the excitatory neurotransmitter glutamate takes place. As a consequence, glutamate transporters that function to remove extracellular glutamate from astrocytes and neurons are overwhelmed and the NMDA-type glutamate receptor is over-activated. This receptor is a calcium channel that therefore leads to a flooding of calcium into the postsynaptic cell. The overall phenomena is refer to as excitotoxicity that in turn leads to neuronal damage and cell death. MK801 is a known blocker of this receptor used here as a control.

ischemic stroke (MCAo) = test: Ischemic stroke model, 2 h MCAo, neurological score during 7 days; assay type: in vivo; details: rat; for activity relative to DHA and NPD1, neurological score (FIG. 12): one hour after 2 h MCAo, 7 days; for in vivo neuroprotective effect (FIG. 12): ICV after 2 hours of MCAo
Procedure: FIG. 12. […] To test the novel elovanoids the experimental design consisted injecting the compounds into the right cerebral ventricle (5 μg/per rat, ICV), one hour after two hours of an ischemic stroke in rats and following thereafter the neurological behavior (neurological score) during 7 days. The protocol in brief was as follows. The injection was made through a surgically implanted metal canula (Alzet) into the right lateral ventricle. Two days later the right middle cerebral artery (MCA) was occluded for 2 h by means of an intraluminal nylon filament (Belayev et al, Traslational Stroke Research, 2010). Then one hour after the compounds were injected dissolved in sterile cerebrospinal fluid. The occlusion was transient performed as follows. The right common carotid artery was exposed through an incision in the neck and was isolated from surrounding tissues. The distal external carotid artery and pterygopalatine arteries were tied. A 4-cm of 3-0 monofilament nylon suture coated with poly-Lysine was introduced into the internal carotid artery and MCA. The suture position was confirmed by advancing the suture 20-22 mm from the common carotid artery bifurcation. Then, the rats were allowed to awaken from anesthesia and returned to their cages. The degree of stroke injury was assessed by neurological assessment of each rat at 60 min after onset of MCAo. […] After 2 hours of MCA occlusion, the rats were re-anesthetized temperature probes were reinserted and the intraluminal suture was removed. The neck incision was closed with silk sutures, and the animals were allowed free access to food and water. […] The methyl ester ELV2-Me is expected to first be hydrolyzed via the actions of esterases, and it may have a more delayed effect, which may be beneficial for a sustainable long-term treatment.
To test the novel elovanoids the experimental design consisted injecting the compounds into the right cerebral ventricle (5 μg/per rat, ICV), one hour after two hours of an ischemic stroke in rats and following thereafter the neurological behavior (neurological score) during 7 days. The protocol in brief was as follows. The injection was made through a surgically implanted metal canula (Alzet) into the right lateral ventricle. Two days later the right middle cerebral artery (MCA) was occluded for 2 h by means of an intraluminal nylon filament (Belayev et al, Traslational Stroke Research, 2010). Then one hour after the compounds were injected dissolved in sterile cerebrospinal fluid. The occlusion was transient performed as follows. The right common carotid artery was exposed through an incision in the neck and was isolated from surrounding tissues. The distal external carotid artery and pterygopalatine arteries were tied. A 4-cm of 3-0 monofilament nylon suture coated with poly-Lysine was introduced into the internal carotid artery and MCA. The suture position was confirmed by advancing the suture 20-22 mm from the common carotid artery bifurcation. Then, the rats were allowed to awaken from anesthesia and returned to their cages. The degree of stroke injury was assessed by neurological assessment of each rat at 60 min after onset of MCAo. […] After 2 hours of MCA occlusion, the rats were re-anesthetized temperature probes were reinserted and the intraluminal suture was removed. The neck incision was closed with silk sutures, and the animals were allowed free access to food and water. […]

[2] = test system: human retinal pigment epithelial (RPE) cells deficient in 15-LOX-D1; test: Oxidative stress (OS) induced apoptosis / cell death in 15-LOX-1-deficient human RPE cells; assay type: cell-based
Source text: (§3) FIG. 4. (A) Cytoprotective effects of NPD1 like compounds on OS induced apoptosis. The results shown in this figure compare the cytoprotective capacities of long chain polyunsaturated fatty acids (VLC-PUFA), elovanoids ELV1 and ELV2, and neuroprotectin D1 (NPD1) in human retinal pigment epithelial (RPE) cells deficient in 15-LOX-D1 by measuring the protection of cell deaths induced by oxidative stress (OS) by these compounds. […] (B) Elovanoid precursors protect human retinal pigment epithelial cells deficient in 15-LOX-1, unlike DHA, from oxidative stress conditions.
as §1
as §3, with “Evidence of cytoprotection by 32.6 and 34.6 VLC-PUFA in oxidative-stress induced ARPE-19 cells as detailed in (FIG. 4): (A) Cytoprotective” for “FIG. 4. (A) Cytoprotective”, “capacities of very long chain” for “capacities of long chain”
as §2, with “(D) Selected images of alive and dead cells from this study (control, OS, treatment with C32:6).” left out

SMILES: c1ccc2c(c1)SCc1c-2[nH]c2ccccc12 [PD 146176, reference compound]
- neuroprotection (FIG. 5A) (ARPE-19 cells): 22%

SMILES: C[C@]12N[C@H](Cc3ccccc31)c1ccccc12 [MK-801, reference compound]
- effect of MK-801 on protection, MTT assay for cell viability (FIG. 11B) [1]: potentiates protection

SMILES: CC/C=C\C[C@H](O)\C=C/C=C/C=C/[C@H](O)C/C=C\C/C=C\CCCCCCCCCCCCCCC(=O)OC [ELV2-Me, methyl (16Z,19Z,22R,23E,25E,27Z,29S,31Z)-22,29-dihydroxy-tetratriaconta-16,19,23,25,27,31-hexaenoate]
- activity relative to DHA and NPD1, neurological score (FIG. 12) (ischemic stroke (MCAo); 5 μg/per rat ICV): more active than DHA and NPD1; also recorded: greater in vivo potency than DHA or NPD1
- in vivo neuroprotective effect (FIG. 12) (ischemic stroke (MCAo)): potent in vivo neuroprotective effects

SMILES: CC/C=C\C[C@H](O)\C=C/C=C/C=C/[C@H](O)C/C=C\C/C=C\CCCCCCCCCCCCCCC(=O)O [ELV2-Na, sodium (16Z,19Z,22R,23E,25E,27Z,29S,31Z)-22,29-dihydroxytetratriaconta-16,19,23,25,27,31-hexaenoate]
- potency of sodium salt versus methyl ester in stroke model (FIG. 12) (ischemic stroke (MCAo); 5 μg/per rat ICV): greater potency
- activity relative to DHA and NPD1, neurological score (FIG. 12) (ischemic stroke (MCAo); 5 μg/per rat ICV): more active than DHA and NPD1; also recorded: greater in vivo potency than DHA or NPD1
- in vivo neuroprotective effect (FIG. 12) (ischemic stroke (MCAo)): potent in vivo neuroprotective effects

SMILES: CC/C=C\C[C@H](O)\C=C/C=C/C=C/[C@H](O)C/C=C\C/C=C\CCC(=O)O [NPD1, 10R,17S-dihydroxy-docosa-4Z,7Z,11E,13E,15Z,19Z-hexaenoic acid, reference compound]
- protection of cell deaths induced by oxidative stress (FIG. 4A) ([2]; 15-LOX-1-deficient human RPE cells, compared to OS (90%)): 60%
- protection against cell death under oxidative stress conditions (FIG. 4B) ([2]; 15-LOX-D1 cells under oxidative stress): protect against cell death
